Laboratory results reported in patent US9409952B2, “Peptide-compound cyclization method” (Chugai Seiyaku Kabushiki Kaisha, priority 2011, dated 2016).
Where two headings read alike, the source gives them in different places. Starred links: 1 amine or outer side, 2 acyl side, 3 side chain; linkers in the order of their positions; H or OH if unused. Positions of bridges follow the written chain, without caps; N, C: chain ends. Non-standard residues stand in square brackets, D forms with d. Residues, ends and D or L forms follow the SMILES beside them. *: point of attachment. Phe(4-(CH2)5CO) = O=C([C@H](Cc1ccc(CCCCCC(=O)[*:3])cc1)N[*:1])[*:2]; Phe(4-CF3) = N[C@@H](Cc1ccc(C(F)(F)F)cc1)C(=O)O; NMePhe(3-Cl) = CN[C@@H](Cc1cccc(Cl)c1)C(=O)O; NMeF = CN[C@@H](Cc1ccccc1)C(=O)O; NMeGABA = CN(CCCC(=O)[*:2])[*:1]; NMeI = CC[C@H](C)[C@H](NC)C(=O)O; NMeβAla = CN(CCC(=O)[*:2])[*:1]; NMeL = CN[C@@H](CC(C)C)C(=O)O; NMeV = CN[C@H](C(=O)O)C(C)C; NMeS = CN[C@@H](CO)C(=O)O; NMeA = CN[C@@H](C)C(=O)O; Piperidide = C1CCN(*)CC1; dNMeA = CN[C@H](C)C(=O)O; β3hA = C[C@H](N)CC(=O)O; Sar = CNCC(=O)O; tBu = CC(C)(C)*

Key:
[1] = PAMPA (parallel artificial membrane permeability assay); format: in vitro ADME; conditions: for Papp at 18 hours, 50 µM: PAMPA
Method in brief: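 Artificial membrane was 10% (w/v) egg lecithin plus 0.5% (w/v) cholesterol in dodecane on a PVDF filter. A 10 mM DMSO stock was added at 0.5% (v/v) to donor buffer (50 mM MOPSO, pH 6.5, 5.0% glycocholic acid). After 18 h at 37 °C, LC/MS or LC/UV gave donor and acceptor levels for Pe.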

[2] = Metabolic stability in human hepatic microsome; format: in vitro ADME
[3] = human, microsomes, pH 7.4, CL NADPH(+)
[4] = membrane permeation rate (Pe), 50 mM MOPSO buffer pH 6.5 with 5.0% glycocholic acid, 37° C., 18 hours, read-out: iPAMPA Pe
[5] = human, human hepatic microsomes, pH 7.4, human hepatic microsome, NADPH(+), read-out: CL NADPH(+)
[6] = microsomes, pH 7.4, human hepatic microsome, NADPH(+), read-out: CL NADPH(+)

Row | SMILES | Papp at 18 hours, 50 µM [1, 4] | microsomal CLint at 1 uM [2, 6] | further results
1 | CC[C@H](C)[C@@H]1NC(=O)[C@H](CC(C)C)N(C)C(=O)[C@H](CC(C)C)N(C)C(=O)[C@H](C)NC(=O)[C@H](CC(C)C)N(C)C(=O)[C@H](Cc2ccc(C(F)(F)F)cc2)NC(=O)[C@H]([C@@H](C)O)NC(=O)[C@H](CC(C)C)N(C)C(=O)[C@H](CC(C)C)N(C)C(=O)[C@H](C)N(C)C(=O)C[C@H](C)NC1=O [DP-776] (cyclo(A[NMeL][NMeL]I[β3hA][NMeA][NMeL][NMeL]T[Phe(4-CF3)][NMeL])) |  |  | Papp at 18 hours, 50 µM ([1]; pH 6.5): 18 ×10⁻⁶ cm/s; microsomal CLint at 1 uM [2, 3]: 44 µL/min/mg
2 | CC[C@H](C)[C@H]1C(=O)N(C)[C@@H](C)C(=O)N[C@@H](COC(C)(C)C)C(=O)N(C)[C@@H](CC(C)C)C(=O)N(C)[C@@H](CC(C)C)C(=O)N[C@H](C(=O)N2CCCCC2)CC(=O)N(C)[C@H](C)C(=O)N(C)[C@@H](Cc2ccccc2)C(=O)N[C@@H](C)C(=O)N(C)[C@@H](CC(C)C)C(=O)N[C@@H]([C@@H](C)O)C(=O)N[C@@H](Cc2ccccc2)C(=O)N1C [DP-63] ([dNMeA][NMeF]A[NMeL]TF[NMeI][NMeA]S(tBu)[NMeL][NMeL]D-Piperidide; lactam N-12) | 17 ×10⁻⁶ cm/s |  | microsomal CLint at 1 uM [2, 5]: 58 µL/min/mg
3 | C=C1CCC(=O)N(C)[C@@H](Cc2ccccc2)C(=O)N(C)CC(=O)N(C)[C@@H](CC(C)C)C(=O)N[C@@H]([C@@H](C)O)C(=O)N(C)[C@@H](C)C(=O)N(C)[C@@H](CC(C)C)C(=O)N(C)[C@@H]([C@@H](C)CC)C(=O)N[C@@H](COC(C)(C)C)C(=O)N[C@H](C(=O)N2CCCCC2)Cc2cccc1c2 [DP-831] |  |  | Papp at 18 hours, 50 µM ([1]; pH 6.5): 55 ×10⁻⁶ cm/s; microsomal CLint at 1 uM [2, 3]: 683 µL/min/mg
4 | CC[C@H](C)[C@H]1C(=O)N[C@@H](CC(C)C)C(=O)N(C)[C@@H](Cc2ccccc2)C(=O)N(C)[C@@H](CC(C)C)C(=O)N[C@@H]([C@@H](C)O)C(=O)N[C@@H](Cc2ccccc2)C(=O)N(C)[C@@H](C(C)C)C(=O)N[C@H](C(=O)N2CCCCC2)CC(=O)N(C)CC(=O)N[C@@H](C)C(=O)N1C [DP-145] ([Sar]A[NMeI]L[NMeF][NMeL]TF[NMeV]D-Piperidide; lactam N-10) | 29 ×10⁻⁶ cm/s | 232 µL/min/mg | 
5 | CC[C@H](C)[C@@H]1NC(=O)[C@H](C)N(C)C(=O)CCCN(C)C(=O)C[C@@H](C(=O)N2CCCCC2)NC(=O)[C@H](CC(C)C)N(C)C(=O)[C@H](C)N(C)C(=O)[C@H]([C@@H](C)O)NC(=O)[C@H](Cc2ccccc2)N(C)C(=O)[C@H](Cc2ccccc2)N(C)C(=O)[C@H](CC(C)C)N(C)C1=O [DP-261] ([NMeGABA][NMeA]I[NMeL][NMeF][NMeF]T[NMeA][NMeL]D-Piperidide; lactam N-10) | 27 ×10⁻⁶ cm/s | 84 µL/min/mg | 
6 | CC(C)C[C@H]1C(=O)N(C)[C@@H](CC(C)C)C(=O)N[C@H](C(=O)N2CCCCC2)CC(=O)N(C)CCCC(=O)N(C)[C@@H](Cc2ccccc2)C(=O)N[C@@H]([C@@H](C)O)C(=O)N(C)[C@@H](C)C(=O)N[C@@H](COC(C)(C)C)C(=O)N1C [DP-685] ([NMeGABA][NMeF]T[NMeA]S(tBu)[NMeL][NMeL]D-Piperidide; lactam N-8) | 28 ×10⁻⁶ cm/s | 90 µL/min/mg | 
7 | CC[C@H](C)[C@H](NC(=O)[C@H](CC(C)C)NC(=O)[C@@H]1CCCN1C(=O)[C@H](CC(C)C)NC(=O)[C@H](CC(C)C)N(C)C(=O)[C@@H]1CC(=O)N[C@@H](Cc2ccccc2)C(=O)N[C@@H](CC(C)C)C(=O)N(C)[C@@H](CC(C)C)C(=O)N[C@@H]([C@@H](C)O)C(=O)N(C)[C@@H](Cc2cccc(Cl)c2)C(=O)N(C)[C@@H](C)C(=O)N(C)[C@@H](CC(C)C)C(=O)N1)C(=O)N1CCCCC1 [DP-925] (FL[NMeL]T[NMePhe(3-Cl)][NMeA][NMeL]D[NMeL]LPLI-Piperidide; lactam N-8) | 0.1 ×10⁻⁶ cm/s | 2 µL/min/mg | 
8 | CC[C@H](C)[C@H]1C(=O)N[C@@H](C)C(=O)N[C@H](C(=O)N2CCCCC2)CC(=O)N(C)[C@@H](C)C(=O)N[C@@H]([C@@H](C)O)C(=O)N(C)[C@@H](Cc2ccccc2)C(=O)N[C@@H](CC(C)C)C(=O)N2CCC[C@H]2C(=O)N(C)[C@@H](C(C)C)C(=O)N[C@@H](Cc2ccccc2)C(=O)N(C)CC(=O)N(C)[C@@H](CC(C)C)C(=O)N1C [DP-58] ([NMeA]T[NMeF]LP[NMeV]F[Sar][NMeL][NMeI]AD-Piperidide; lactam N-12) | 20 ×10⁻⁶ cm/s |  | microsomal CLint at 1 uM [2, 5]: 27 µL/min/mg
9 | C=C1CCC(=O)N[C@@H](CC(C)C)C(=O)N[C@@H](C(C)C)C(=O)N(C)[C@@H](CC(C)C)C(=O)N[C@@H](Cc2ccccc2)C(=O)N(C)[C@@H](Cc2ccccc2)C(=O)N[C@@H]([C@@H](C)CC)C(=O)N(C)[C@@H](C)C(=O)N[C@@H](CC(C)C)C(=O)N[C@@H]([C@@H](C)O)C(=O)N[C@H](C(=O)N2CCCCC2)Cc2ccc1cc2 [DP-888] | 0.81 ×10⁻⁶ cm/s | 69 µL/min/mg | 
10 | CC[C@H](C)[C@@H]1NC(=O)[C@H](CC(C)C)N(C)C(=O)CCN(C)C(=O)C[C@@H](C(=O)N2CCCCC2)NC(=O)[C@H](Cc2ccccc2)N(C)C(=O)[C@H](CC(C)C)NC(=O)CN(C)C(=O)[C@H]([C@@H](C)O)NC(=O)[C@H](C)N(C)C(=O)[C@H](C(C)C)N(C)C1=O [DP-118] ([NMeβAla][NMeL]I[NMeV][NMeA]T[Sar]L[NMeF]D-Piperidide; lactam N-10) |  |  | Papp at 18 hours, 50 µM ([1]; pH 6.5): 14 ×10⁻⁶ cm/s; microsomal CLint at 1 uM [2, 3]: 79 µL/min/mg
11 | CC[C@H](C)[C@H]1C(=O)N[C@@H]([C@@H](C)O)C(=O)N(C)CC(=O)N(C)[C@@H](CC(C)C)C(=O)N[C@H](C(=O)N2CCCCC2)Cc2ccc(cc2)CCCCCC(=O)N[C@@H](CC(C)C)C(=O)N(C)[C@@H](CC(C)C)C(=O)N(C)[C@@H](Cc2ccccc2)C(=O)N[C@@H](C)C(=O)N(C)[C@@H](Cc2ccccc2)C(=O)N1C [DP-856] (L[NMeL][NMeF]A[NMeF][NMeI]T[Sar][NMeL][Phe(4-(CH2)5CO)]-Piperidide; lactam N-10) | 0.44 ×10⁻⁶ cm/s | 183 µL/min/mg | 
12 | CC(C)C[C@@H]1NC(=O)[C@H](CO)N(C)C(=O)[C@H](CC(C)C)N(C)C(=O)[C@H](CC(C)C)N(C)C(=O)[C@H](CC(C)C)N(C)C(=O)[C@@H](C)NC(=O)[C@H](C)NC(=O)[C@H](CC(C)C)N(C)C(=O)C[C@H](C)NC(=O)[C@H](CC(C)C)N(C)C(=O)CN(C)C1=O [DP-649] (cyclo(A[dA][NMeL][NMeL][NMeL][NMeS]L[Sar][NMeL][β3hA][NMeL])) | 22 ×10⁻⁶ cm/s | 27 µL/min/mg | 
13 | CC(C)C[C@@H]1NC(=O)[C@H](CC(C)C)N(C)C(=O)CN(C)C(=O)[C@H]([C@@H](C)O)NC(=O)[C@H](C)N(C)C(=O)C[C@@H](C(=O)N2CCCCC2)NC(=O)[C@H](Cc2ccccc2)N(C)C1=O [DP-744] ([NMeA]T[Sar][NMeL]L[NMeF]D-Piperidide; lactam N-7) | 12 ×10⁻⁶ cm/s | 61 µL/min/mg | 
14 | CC[C@H](C)[C@@H]1NC(=O)[C@H](CC(C)C)N(C)C(=O)[C@H](CC(C)C)N(C)C(=O)CCN(C)C(=O)C[C@@H](C(=O)N2CCCCC2)NC(=O)[C@H](CC(C)C)N(C)C(=O)[C@H](CC(C)C)N(C)C(=O)[C@H](Cc2ccccc2)N(C)C(=O)[C@H]([C@@H](C)O)NC(=O)[C@H](Cc2ccccc2)N(C)C1=O [DP-429] ([NMeβAla][NMeL][NMeL]I[NMeF]T[NMeF][NMeL][NMeL]D-Piperidide; lactam N-10) | 15 ×10⁻⁶ cm/s | 115 µL/min/mg | 
15 | CC(C)C[C@H]1C(=O)N(C)[C@@H](CC(C)C)C(=O)N(C)CC(=O)N(C)[C@@H](Cc2ccccc2)C(=O)N[C@@H](C)C(=O)N(C)[C@@H](Cc2ccccc2)C(=O)N(C)[C@@H](CC(C)C)C(=O)N[C@@H]([C@@H](C)O)C(=O)N[C@H](C(=O)N2CCCCC2)CC(=O)N[C@H](C(C)C)C(=O)N(C)[C@@H](C)C(=O)N1C [DP-151] ([dV][NMeA][NMeL][NMeL][Sar][NMeF]A[NMeF][NMeL]TD-Piperidide; lactam N-11) | 27 ×10⁻⁶ cm/s | 30 µL/min/mg | 
16 | CC[C@H](C)[C@H]1C(=O)N[C@H](C(=O)N2CCCCC2)Cc2ccc(cc2)CCCCCC(=O)N[C@@H](CC(C)C)C(=O)N2CCC[C@H]2C(=O)N(C)[C@@H](C(C)C)C(=O)N[C@@H](Cc2ccccc2)C(=O)N(C)[C@@H](Cc2ccccc2)C(=O)N(C)[C@@H](CC(C)C)C(=O)N[C@@H](C)C(=O)N1C [DP-871] (LP[NMeV]F[NMeF][NMeL]A[NMeI][Phe(4-(CH2)5CO)]-Piperidide; lactam N-9) | 1.2 ×10⁻⁶ cm/s | 389 µL/min/mg | 
17 | CC[C@H](C)[C@H](NC(=O)[C@H](CC(C)C)N(C)C(=O)[C@H](C)N(C)C(=O)[C@@H](NC(=O)[C@H](CC(C)C)N(C)C(=O)[C@@H]1CC(=O)N[C@H](C(C)C)C(=O)N(C)[C@@H](C)C(=O)N(C)[C@@H](Cc2cccc(Cl)c2)C(=O)N(C)[C@@H](CC(C)C)C(=O)N[C@@H]([C@@H](C)O)C(=O)N(C)[C@@H](CC(C)C)C(=O)N1)[C@@H](C)CC)C(=O)N1CCCCC1 [DP-911] ([dV][NMeA][NMePhe(3-Cl)][NMeL]T[NMeL]D[NMeL]I[NMeA][NMeL]I-Piperidide; lactam N-7) |  | 152 µL/min/mg | iPAMPA Pe ([1]; membrane permeation rate (Pe), 50 mM MOPSO buffer pH 6.5 with 5.0% glycocholic acid, 37° C., 18 hours): 1.0E−07
18 | CC(C)C[C@H]1C(=O)N[C@@H]([C@@H](C)O)C(=O)NCC(=O)N[C@@H](C(C)C)C(=O)N[C@H](C(=O)N(C)[C@@H](Cc2ccccc2)C(=O)N[C@@H](C)C(=O)N2CCCCC2)CC(=O)N(C)[C@H](C)C(=O)N(C)[C@@H](C(C)C)C(=O)N[C@@H](Cc2ccccc2)C(=O)N(C)[C@@H](Cc2ccccc2)C(=O)N(C)[C@@H](C)C(=O)N1C [DP-356] ([dNMeA][NMeV]F[NMeF][NMeA][NMeL]TGVD[NMeF]A-Piperidide; lactam N-10) | 34 ×10⁻⁶ cm/s | 66 µL/min/mg | 
